According to article PMC8546421, “Molecular modelling of the FOXO4-TP53 interaction to design senolytic peptides for the elimination of senescent cancer cells” (EBioMedicine, 2021):
Where two headings read alike, the source gives them in different places. Where no end group is shown, it is not given here.

What was measured:
[1] = system: senescent A375 human melanoma cells; assay: Orthotopic xenograft of senescent luciferase A375 cells in mouse ears; format: in vivo; conditions: NSG mouse ears, local injection 50 µL of 5 mg/mL once daily for two days, imaged 24 hours after second treatment; ANOVA p<0.01
From the text: Mice were aged between 3-8 months and 20-30 g in weight and were housed in specific pathogen free cages. Animals were randomly distributed among treatment groups by assigning mice within the same cage to different treatment regimens. To minimise confounders, mouse treatment order was randomised within each cage. Male and female mice were distributed between all treatment groups since the chemicals used were directly injected and are not metabolized. Researchers were not blinded to the group allocation, but all attempts were made to analyse the data without knowing treatment conditions. NOD.Cg-Prkdcscid Il2rgtm1Wjl/SzJ (NSG) were purchased from The Jackson Laboratory (IMSR Cat# JAX:005557, RRID:IMSR_JAX:005557). NOD.Cg-KitW-41J Tyr + Prkdcscid Il2rgtm1Wjl/ThomJ (NBSGW) were purchased from The Jackson Laboratory (IMSR Cat# JAX:026622, RRID:IMSR_JAX:026622). Immunocompromised mice used for these experiments were all in the NSG background; however, some mice were F1 generation of NSG x NBSGW, thus the brown coat colour as NBSGW mice have tyrosinase. Xenografts containing senescent cells were established by injecting A375-Luc/iRFP human melanoma cells which contained a luciferase expressing gene into immunocompromised NSG ears. Senescence was induced in the cells via doxorubicin treatment (40 nM) then resuspended in DMEM prior to injection. Each ear was then injected with 50 µL containing approximately 1,000,000 cells. The ears were treated once daily for two days with 50 µL of either 5 mg/mL peptide, or saline. To control for confounders, each mouse contained one ear treated with saline (control). For imaging, mice were injected with 3 mg luciferin intravenously and imaged before and after treatment. Transgenic mice (BrafCA, PtenloxP, Tyr::CreERT2) were purchased from The Jackson Laboratory (IMSR Cat# JAX:013590, RRID:IMSR_JAX:013590). These mice were maintained on a C57Bl6 background and all experimental mice contained Tyr::CreER with either Braf^CA/+, Pten^fx/+; Braf^CA/CA, Pten^fx/+, or Braf^CA/+, Pten^fx/fx. […] Hypopigmented melanomas sporadically formed over the next 3-5 months, typically on the back of the mouse. These melanomas were then directly injected with 100 µL of either 20 mg/mL ES2+10%DMSO, saline+10%DMSO, saline+10%Dabrafenib, or 20 mg/mL ES2+10%Dabrafenib. The researchers were not blinded to the experiment, but each mouse contained an internal control and all imaging was done with the same exposure times based upon control tissue. For survival analyses, either 750,000 or 25,000 A375-Luc/iRFP cells were injected intradermally into NSG mice. Different combinations of drugs were locally injected to the region once daily for two days with 50 µL of either 5 mg/mL ES2, 10%Dabrafenib, or 5mg/mL ES2+10%Dabrafenib. Dabrafenib was made at 100 mg/mL in DMSO. Mice were then monitored daily and allowed to age until a humane endpoint was reached according to our IACUC protocol, which in this case was tumours of 2 cm in size. Aged C57Bl6 male mice were purchased from the Jackson Laboratory (IMSR Car# JAX:000664, RRID:IMSR_JAX:000664) at 72 weeks of age and were started on the experiment at 82 weeks. Mice were treated with 3 mg of ES2 via tail vein injection weekly for three weeks and weighed weekly. Blood was drawn prior to beginning experiments and at the endpoint. To generate plasma, blood was centrifuged at 1,500g for 10 minutes, then 2,500g for 10 minutes, then frozen for later analyses. […]

[2] = target: T1, FOXO4 (Homo sapiens, UniProt P98177); assay: Bio-layer Interferometry, FOXO4; format: binding
T1 construct: purchased OriGene Technologies TP760655
T1 sequence (P98177 whole entry): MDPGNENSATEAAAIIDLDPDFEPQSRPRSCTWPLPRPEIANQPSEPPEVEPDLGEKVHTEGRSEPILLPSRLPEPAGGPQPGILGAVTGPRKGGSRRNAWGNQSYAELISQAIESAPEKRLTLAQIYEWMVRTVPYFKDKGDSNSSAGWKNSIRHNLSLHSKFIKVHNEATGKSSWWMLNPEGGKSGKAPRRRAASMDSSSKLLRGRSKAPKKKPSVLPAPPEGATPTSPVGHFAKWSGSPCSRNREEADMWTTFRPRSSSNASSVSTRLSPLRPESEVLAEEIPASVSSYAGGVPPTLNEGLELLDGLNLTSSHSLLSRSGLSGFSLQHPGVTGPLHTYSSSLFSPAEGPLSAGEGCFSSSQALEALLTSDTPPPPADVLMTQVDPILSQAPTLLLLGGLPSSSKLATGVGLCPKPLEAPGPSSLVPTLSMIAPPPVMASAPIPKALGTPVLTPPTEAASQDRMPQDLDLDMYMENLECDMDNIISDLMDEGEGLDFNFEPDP
Procedure: Bio-layer Interferometry (BLI) measurements were performed on a ForteBio Octet RED384 instrument (Molecular Devices) using ForteBio Data Acquisition software 9.0 and ForteBio biosensors (Molecular Devices) according to the manufacturer's instructions. Kinetic assays were carried out at 30°C using settings of Standard Kinetics Acquisition rate (5.0 Hz, averaging by 20) at a sample plate shake speed of 1,000 rpm. Streptavidin sensors (SA) (ForteBio) equilibrated in PBS were mock loaded (no ligand reference sensor) or loaded with 50 nM of N- terminal biotinylated ES2 peptide (New England Peptide, Inc.) with an approximate response of 1 nm. Ligand loaded SA sensors equilibrated in Kinetics buffer (ForteBio) to establish a baseline, were dipped into wells containing 2-fold dilutions of TP53 (Millipore Sigma Aldrich; Cat# 23-034), FOXO4 (OriGene Technologies; Cat# TP760655) or GFP analytes in kinetics buffer, or buffer alone (reference sample). Increasing concentrations of analytes ranging from 6.2 - 200 nM were allowed to associate for 240 secs, followed by 600 sec dissociation step where the TP53/FOXO4-bound sensors were washed with kinetics buffer. Binding curves were analysed using ForteBio Data Analysis HT 10.0 evaluation software. To control for background signal and non-specific binding, raw experimental data were processed by subtracting reference biosensor and reference sample (no ligand). Processed data from at least six different concentrations of analyte binding were globally fit to a 1:1 Langmuir binding model to calculate the association rate constant ka, the dissociation rate constant kd to achieve R^2 > 0.90. Equilibrium dissociation constants KD which defines the strength of the interaction or affinity was calculated as the kinetic dissociation rate constant divided by the kinetic association rate constant.

## PRKGGRRRRAWGRRRRRRRRRRRRRRAPRKRLTLA [ES2]
[1]
  luciferase signal compared to E1 and saline: statistically significantly reduced luciferase signal
[2]; BLI KD ratio
  affinity for FOXO4 compared to TP53: approximately 4 fold
[2]; BLI, 1:1 Langmuir binding model, read-out: association rate ka
  kon: 117000 M⁻¹ s⁻¹
[2]; BLI, biotinylated ES2 immobilized on streptavidin sensors, analyte 6.25-200 nM, 30°C, global 1:1 Langmuir fit
  kd: 7.7e-05 ± 7.2e-07 s⁻¹
[2]; BLI, biotinylated ES2 immobilized on streptavidin sensors, analyte 6.25-200 nM, 30°C, global 1:1 Langmuir fit, read-out: ka
  kon: 120000 M⁻¹ s⁻¹
[2]; BLI, biotinylated ES2 immobilized on streptavidin sensors, analyte 6.25-200 nM, 30°C, kd/ka
  Kd: 0.66 ± 0.01 nM
